The source of these data is publication PMC4746285, “Functional Analysis of the Citrate Activator CitO from Enterococcus faecalis Implicates a Divalent Metal in Ligand Binding” (Frontiers in Microbiology, 2016).

Usually Kd stands for the constant that tells how readily two partners part at equilibrium. A lower Kd goes with tighter binding. Usually Tm stands for the temperature at which the thermal transition is half complete. A word on the stoichiometry N: it is the number of molecules, sites or subunits per partner or assembly.

Where two headings read alike, the source gives them in different places.

The target of data set [1] is T1, CitO-wt (Enterococcus faecalis, UniProt Q82YV4). The data set is classed as biochemical. Conditions: for Effect on CitO-PcitH−CL complex formation: EDTA-treated CitO-wt.
A further data set concerns the target TM0439. Set-up: method as in Zheng et al., 2009. Conditions: ref Zheng et al., 2009; cited from earlier work.
In data set [2] the target is T1, CitO-wt. Put plainly: Isothermal titration calorimetry of CitO-wt with citrate. Format: binding. Here is the method:
Measurements were performed on a VP-Microcalorimeter (MicroCal, Northampton, MA) at 25°C. The proteins were thoroughly dialyzed against 10 mM Tris (pH 8.0), 500 mM NaCl, and 2.5% glycerol. A solution of citrate (1 mM, pH 8.0) was directly prepared in dialysis buffer. Each titration involved a series of 3 μl injections of the effector molecule into the protein solution. The mean enthalpies measured from injection of the ligand in the buffer were subtracted from raw titration data prior to data analysis with Origin 8 software (MicroCal). Titration curves were fitted by a nonlinear least squares method to a function for the binding of a ligand to a macromolecule (Wiseman et al., [1989]). From the curve thus fitted, the parameters ΔH (reaction enthalpy), KA (binding constant, KA = 1/KD), and N (reaction stoichiometry) were determined. From the values of KA and ΔH, the changes in free energy (ΔG) and entropy (ΔS) were calculated with the following equation: ΔG = −RT lnKA = ΔH−TΔS; where R is the universal molar gas constant and T is the absolute temperature.
In general terms: Isothermal titration calorimetry measures the heat released or taken up as one component is titrated into another.

The target of data set [3] is T2, CitO-Q64A (Enterococcus faecalis, UniProt Q82YV4, Q64A). Put plainly: biochemical. The data set is classed as binding.
Data set [4] has as its target T3, CitO-H74A (Enterococcus faecalis, UniProt Q82YV4, H74A). In words: biochemical. Format: binding.
For data set [5], the target named is CitO-R97A. Format: binding. The following applies: ITC, 25°C, ni = no interaction.
Data set [6] has as its target T4, CitO-F143A (Enterococcus faecalis, UniProt Q82YV4, F143A). Put plainly: biochemical. The data set is classed as binding.
Data set [7] deals with CitO-H191A. Format: binding. The following applies: ITC, 25°C, ni = no interaction.
Data set [8] concerns the target T5, CitO-L214A (Enterococcus faecalis, UniProt Q82YV4, L214A). Put plainly: biochemical. The data set is classed as binding.
The target in data set [9] is T1, CitO-wt. The data set is classed as binding. Here is the method: The assay was carried out as described earlier (Pagliai et al., [2010]). Briefly, CitO (10 μM), in presence or absence of increasing concentrations of citrate or malate (the latter was used as a negative control), was placed (in duplicate) into 96-well plates (Bio-Rad, Hercules, CA) and heated from 25 to 80°C at the rate of 1°C per min. The unfolding of the protein was monitored by the increase in fluorescence of the fluorophore SYPRO Orange (Invitrogen). Fluorescence intensities were plotted against temperature for each sample well and transition curves were fitted with the Boltzmann equation using Origin 8 software (Northampton, MA). The midpoint of each transition curve was calculated and values obtained in presence of the ligand compared to those calculated for CitO in absence of the ligand.

The target in data set [10] is T2, CitO-Q64A. Format: binding. Conditions: DSF.
Data set [11] concerns the target T3, CitO-H74A. Format: binding. The following applies: DSF.
For data set [12], the system named is CitO-R97A. The data set is classed as binding. Conditions: DSF, citrate up to 1 mM.
Data set [13] deals with T4, CitO-F143A. Format: binding. Conditions: DSF, 50 μM citrate, Tm = 50°C without citrate.
Data set [14] concerns CitO-H191A. Format: binding. Conditions: DSF, citrate up to 1 mM.
The target of data set [15] is T5, CitO-L214A. Format: binding. Conditions: DSF, only at 50 μM citrate or higher.
The target of data set [16] is T2, CitO-Q64A. The data set is classed as biochemical. The following applies: EMSA, 5 mM citrate. (A gel shift assay detects complexes by their altered migration in electrophoresis.)
Data set [17] addresses T3, CitO-H74A. The data set is classed as biochemical. The following applies: EMSA, 5 mM citrate.
Data set [18] relates to CitO-R97A. The data set is classed as biochemical. The following applies: EMSA, 5 mM citrate.
Data set [19] has as its target T4, CitO-F143A. The data set is classed as biochemical. The following applies: EMSA, 5 mM citrate.
The test system of data set [20] is CitO-H191A. The data set is classed as biochemical. The following applies: EMSA, 5 mM citrate.
In data set [21] the target is T5, CitO-L214A. Format: biochemical.
The test system of another data set is PcitCL promoter activity. Put plainly: β-galactosidase assay, PcitCL fusion to lacZ in JHB14 strains expressing CitO variants. Format: cell-based, E. faecalis. Conditions: for β-galactosidase activity: LB with 17 mM citrate.
Another data set concerns CitO. More on the design: method as in Blancato et al., 2008. Conditions: in vivo and in vitro experiments; ref Blancato et al., 2008; cited from earlier work.
The target of data set [22] is CitO, regulator of citrate metabolism from Enterococcus faecalis (Enterococcus faecalis). Put plainly: SEC; Superdex 75; 200 ul of 28.4 uM CitO, with or without 1 mM citrate (pH 8.0), 30 min on ice before injection; 50 mM Tris pH 7.6, 300 mM NaCl, 5% glycerol; 4°C; mass from a standard curve of protein standards. (In general: In gel filtration, larger molecules generally elute earlier.)

Data set [23] has as its system T6, CitO-L214A L214A (Enterococcus faecalis), ORF:7f2fe6d0.
T6 sequence: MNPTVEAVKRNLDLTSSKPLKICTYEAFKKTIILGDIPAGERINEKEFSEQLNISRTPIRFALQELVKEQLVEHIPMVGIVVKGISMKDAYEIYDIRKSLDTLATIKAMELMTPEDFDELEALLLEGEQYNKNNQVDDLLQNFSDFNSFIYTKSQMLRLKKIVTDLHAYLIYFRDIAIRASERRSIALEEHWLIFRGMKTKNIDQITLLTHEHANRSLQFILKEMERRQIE
Put plainly: EMSA.

Setting [24] is: EMSA, 0.2 μM CitO-wt, Me2+ 2 mM, absence of citrate.
Setting [25] is: EMSA, Me2+ 2 mM together with 5 mM citrate.
Where [26] appears, read: DSF, CitO-wt, ligand added, without ligand Tm1 = 43°C, Tm2 = 58°C.

On to `[Ca+2]` [Ca^2+], for which the “Effect on binding of CitO to PcitH−CL” value on CitO-wt [1] (setting [24]) is “did not modify the binding”.
As to `O=C(O)CN(CCN(CC(=O)O)CC(=O)O)CC(=O)O` [EDTA], the “Effect on binding of CitO to PcitH−CL” value at CitO-wt [1] was “decreased the binding”.
For the molecule `[Mg+2]` [Mg^2+], the “Effect on binding of CitO to PcitH−CL” value on CitO-wt [1] (setting [24]) is reported as “did not modify the binding”.
The same measure, in the same setting: in the case of `[Mn+2]` [Mn^2+] it was “did not modify the binding”.
Turning to `[Ni+2]` [Ni^2+], the “Effect on binding of CitO to PcitH−CL” value on CitO-wt [1] (setting [24]) is on record as “decreased the binding”. For the same molecule, the “Effect on CitO-PcitH−CL complex formation” value on CitO-wt [1] (setting [25]) is on record as “increased the stability of the larger CitO-PcitH−CL complexes”. At TM0439, the KD entry is “nanomolar range”.
On to `[Zn+2]` [Zn^2+], for which the “Effect on binding of CitO to PcitH−CL” value at CitO-wt [1] (setting [24]) is “decreased the binding”. For the same molecule, at CitO-wt [1] (setting [25]), the “Effect on CitO-PcitH−CL complex formation” value is given as “increased the stability of the larger CitO-PcitH−CL complexes”. The KD result at TM0439 is listed as “nanomolar range”.
Turning to `O=C(O)CC(O)(CC(=O)O)C(=O)O` [citrate], the Kd is 1200 ± 200 nM at CitO-wt [2]; 770 ± 100 nM on CitO-Q64A [3]; 820 ± 40 nM at CitO-H74A [4]; 440 ± 80 nM at CitO-F143A [6]; 1200 ± 200 nM on CitO-L214A [8]. The ΔG at CitO-wt [2] (ITC, CitO-wt) was -7.9834 kcal/mol; on CitO-Q64A [3] (ITC, CitO-Q64A) it was -8.34 kcal/mol; at CitO-H74A [4] (ITC, CitO-H74A), -8.4346 kcal/mol; at CitO-F143A [6] (ITC, CitO-F143A) it was -8.6857 kcal/mol; at CitO-L214A [8] (ITC, CitO-L214A), -8.07 kcal/mol. The ΔH at CitO-wt [2] (ITC, CitO-wt) was 6.122 kcal/mol; at CitO-Q64A [3] (ITC, CitO-Q64A) it was 6.724 kcal/mol; at CitO-H74A [4] (ITC, CitO-H74A), 6.5 kcal/mol; on CitO-F143A [6] (ITC, CitO-F143A), 16.02 kcal/mol; at CitO-L214A [8] (ITC, CitO-L214A), 5.78 kcal/mol. Moreover, at CitO-wt [2] (ITC, CitO-wt), the “ΔS (entropy change)” value was found to be 47.3 cal/mol/deg. Moreover, the KD entry at CitO-R97A [5] was “did not interact and ni^*”; on CitO-H191A [7], “did not interact and ni^*”. The molecule further displayed a TΔS on CitO-L214A [8] (ITC, CitO-L214A) of 46.5 cal/mol/deg. For the same molecule, the “Shift in the Tm2” value at CitO-wt [9] (setting [26]) is “induced a shift in the Tm2”. For the same molecule, on CitO-Q64A [10] (5 μM citrate), the “Shift in Tm” value is given as “clear shift in Tm”. The Thermal stability entry at CitO-Q64A [10] (50 μM citrate) was “higher stability”. Also, the “Interaction with citrate in solution” value at CitO-H74A [11] is given as “still able to interact with citrate”. Moreover, the “Denaturation temperature in presence vs absence of citrate” value in the data set with CitO-R97A [12] and in the data set with CitO-H191A [14] was “denatured at similar temperature” each time. Also, the melting temperature (Tm) at CitO-F143A [13] is 57 °C. The “ΔTm (increase in Tm2)” value on CitO-L214A [15] was found to be 4 °C. The “Stability of the CitO-DNA complexes” value at CitO-wt [1] (EMSA, CitO-wt, citrate up to 5 mM) is on record as “increased”. Moreover, at CitO-wt [1] (EMSA, 5 mM citrate alone), the “Effect on CitO-PcitH−CL complex formation” value is reported as “improved the formation of intermediate complexes”. Moreover, the “Ability to bind the DNA probe in presence of citrate” value on CitO-Q64A [16] was “comparable to the wild type”. Further, the “Effect on formation of protein:DNA complexes” value at CitO-H74A [17], in the data set on CitO-R97A [18] and in the data set on CitO-H191A [20] was “did not modify the formation of protein:DNA complexes” in each case. Further, at CitO-F143A [19], the “Shift of protein:DNA complex” value is listed as “strong shift”. Moreover, at CitO-L214A [21], the “Effect on binding to PcitH−CL” value was “increased the binding”. The “Increment in the β-galactosidase activity” value with PcitCL promoter activity stood at 64 fold. Further, the β-galactosidase activity result in the data set on PcitCL promoter activity (CitO-H191A strain) is listed as “very low β-galactosidase activity”; in the data set with PcitCL promoter activity (CitO-R97A strain), “very low β-galactosidase activity”; in the data set with PcitCL promoter activity (strain carrying CitO-H74A), “reduced β-galactosidase activity”; in the data set with PcitCL promoter activity (strain containing CitO-F143A), “induced”; with PcitCL promoter activity (strain containing CitO-Q64A), “induced”; in the data set with PcitCL promoter activity (strain containing CitO-wt), “induced”. The “Activation of CitO” value with CitO is “specifically activated only by citrate”.
On to `O=C(O)CC(C(=O)O)C(O)C(=O)O` (stereo not shown) [isocitrate], for which, at CitO-wt [9] (setting [26]), the “Shift in the Tm2” value is on record as “did not show a shift in the Tm2”.
Still for that read-out and setting: in the case of `O=C(O)CC(O)C(=O)O` (stereo not shown) [malate] it was “did not show a shift in the Tm2”.
For “CitO, regulator of citrate metabolism from Enterococcus faecalis (natural protein)”, the stoichiometry N in data set [22] turned out to be 2.
Turning to “GGTATACGTTCATTATAGAAAAAACCGTTAAAAAACCTAGTGAAAACACTAGCTCAGATTGTTCTTTTATTGTTTATTTTGTGAAAAAAACTCTGTAAACATTGGTATATAAGCATTTATCAGCCGTTAAGATTCTATTAATATTATATTAAGTTATTAATAAGAATTTGATTGTTGAATTGTTTTTTTGATGTTCTTTTTGTTTTAGGCTATTTATTCTCTGCGAAAGTTTGTATATTCTCACAC (double strand) [PcitH-CL]”, the binding entry in [23] is “binds”.
For succinate, the “Shift in the Tm2” value on CitO-wt [9] is “did not show a shift in the Tm2”.
